# Experimental data taken from PubChem BioAssay (NCI).
# Values joined by “and” are separate entries in the source; they are usually repeats but may differ in a detail not shown here. Equal entries are not always repeated.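 Step 1: Grow cells in 96-well plates. Step 2: Expose to compound for 48 hours at 5 concentrations. Step 3: Interpolate endpoints linearly; if unreached, use highest concentration. GI50 = concentration required for 50% inhibition of growth. TGI marks complete inhibition of growth.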
# Experiments:
# Experiment in all cases: NCI anticancer screen, dose series, 48 h
# A549 NSCLC = test system: A549 NSCLC
# CAKI-1 renal = test system: CAKI-1 renal
# NCI-H522 lung = test system: NCI-H522 lung
# RPMI-8226 leukemia = test system: RPMI-8226 leukemia
# SK-MEL-2 melanoma = test system: SK-MEL-2 melanoma
# SK-MEL-28 melanoma = test system: SK-MEL-28 melanoma
# SN12C renal = test system: SN12C renal
# SNB-19 CNS = test system: SNB-19 CNS
# SR leukemia = test system: SR leukemia
# UO-31 renal = test system: UO-31 renal
Compound,GI50 (A549 NSCLC),TGI (A549 NSCLC),GI50 (CAKI-1 renal),TGI (CAKI-1 renal),GI50 (NCI-H522 lung),TGI (NCI-H522 lung),GI50 (RPMI-8226 leukemia),TGI (RPMI-8226 leukemia),GI50 (SK-MEL-2 melanoma),TGI (SK-MEL-2 melanoma),GI50 (SK-MEL-28 melanoma),TGI (SK-MEL-28 melanoma),GI50 (SN12C renal),TGI (SN12C renal),GI50 (SNB-19 CNS),TGI (SNB-19 CNS),GI50 (SR leukemia),TGI (SR leukemia),GI50 (UO-31 renal),TGI (UO-31 renal)
Cn1cc(C2=C(c3cc[nH]c3)C(=O)NC2=O)c2ccccc21,> 25 µM,> 25 µM,> 25 µM,> 25 µM,24.3 µM,> 25 µM,> 25 µM,> 25 µM,> 25 µM,> 25 µM,> 25 µM,> 25 µM,> 25 µM,> 25 µM,> 25 µM,> 25 µM,12 µM,> 25 µM,> 18.5 µM,> 25 µM
Cc1nc2sc(C(=O)Nc3ccccc3)c(N)c2cc1C(O)c1ccccc1 (centres undefined),0.421 µM,> 100 µM,0.243 µM,> 100 µM,0.304 µM,> 24.1 µM,0.417 µM,11.7 µM,0.659 µM,> 100 µM,10.8 µM,> 100 µM,0.46 µM,> 100 µM,0.446 µM,> 100 µM,0.0434 µM,> 30.5 µM,0.727 µM,> 60.9 µM
CN(C)C(=S)/N=c1\ssc(=S)n1Cc1ccco1,,> 100 µM,,> 100 µM,,2.07 µM,,> 100 µM,,30.3 µM,,> 100 µM,,> 100 µM,,> 78.4 µM,,> 100 µM,,> 100 µM
C=C(C)C1CCC2=CC(CC3(C)OC3C3=CC(C(=O)OC)=C(C1)O3)OC2=O (centres undefined),,> 100 µM,,> 100 µM,,> 100 µM,,,,> 100 µM,,> 100 µM,,> 100 µM,,> 100 µM,,> 100 µM,,> 100 µM
CCC[n+]1cc2cc3c(cc2c2c1-c1cc4c(cc1C2)OCO4)OCO3 (tested in a mixture with another compound),2.77 µM,> 52.4 µM,25.8 µM,> 91.8 µM,,2.08 µM,0.545 µM,5.5 µM,0.53 µM,2.35 µM,0.783 µM,2.49 µM,0.0664 µM,0.777 µM,0.269 µM,2.18 µM,0.287 µM,1.75 µM,3.14 µM,33.8 µM
CCCS(=O)c1nc(COC(=O)NC)c(COC(=O)NC)n1C (centres undefined),,> 100 µM,,> 100 µM,,> 100 µM,,> 100 µM,,> 100 µM,,> 100 µM,,> 100 µM,,> 100 µM,,> 100 µM,,> 100 µM
COc1cc2c(NC3CCN(C(C)C)CC3)nc(C3CCCCC3)nc2cc1OCCCN1CCCC1,3.38 µM,13.3 µM,5.01 µM,11.2 µM,2.95 µM,8.53 µM,2.42 µM,7.75 µM,2.18 µM,4.59 µM,1.72 µM,3.24 µM,12 µM,25.1 µM,15.4 µM,30.3 µM,3.25 µM,10.2 µM,14.1 µM,28.1 µM
O=C1C(Cl)=C(Cl)C(=O)N1c1cccc(C(F)(F)F)c1,,> 100 µM,,98 µM,,26.4 µM,,> 100 µM,,> 100 µM,,> 100 µM,,> 100 µM,,> 100 µM,,> 100 µM,,> 100 µM
CC(=O)c1ccc2c3c1[C@H]1O[C@H]1c1cccc(c1-3)[C@@H]1O[C@H]21,,9.32 µM,,2.67 µM,,1.1 µM,,8.35 µM,3.79 µM,> 100 µM,,5.96 µM,,3.86 µM,,13.1 µM,,> 100 µM,,3.41 µM
[Cl][Hg][c]1ccc2ccccc2c1,12.1 µM,27.1 µM,3.64 µM,6.97 µM,0.821 µM,2.37 µM,2.5 µM,10.1 µM,1.6 µM,3.92 µM,1.6 µM,3.03 µM,1.76 µM,3.57 µM,2.22 µM,5.21 µM,0.257 µM,5.86 µM,4.44 µM,8.23 µM
Oc1ccc(Cl)cc1Sc1cc(Cl)ccc1O,3.91 µM,58.6 µM and 13.7 µM,6.82 µM,34.8 µM and 29.6 µM,2.41 µM,13.6 µM and 9.17 µM,1.97 µM,,2.17 µM,24.2 µM and 5.56 µM,4.67 µM,26.3 µM and 15.3 µM,3.16 µM,27.4 µM and 10.4 µM,4.19 µM,57.1 µM and 16 µM,3.53 µM,51.6 µM and 12.2 µM,2.24 µM,20.1 µM and 6.24 µM
Cc1ccnc2c(NC(C)CCCN)cc(O)c(O)c12 (centres undefined),20.7 µM,75 µM,38.7 µM,> 100 µM,2.14 µM,9.44 µM,11 µM,76.6 µM,> 100 µM,> 100 µM,62.5 µM,> 100 µM,2.86 µM,13 µM,,,29.3 µM,90.3 µM,61.9 µM,> 100 µM
CCN(CC)S(=O)(=O)c1cccc(-c2ccc3c(NC(=O)C4CC4)n[nH]c3c2)c1,2.79 µM,> 6.25 µM,2.28 µM,> 6.25 µM,1.08 µM,> 6.25 µM,1.6 µM,> 6.25 µM,1.85 µM,> 6.25 µM,3.06 µM,> 6.25 µM,3.77 µM,> 6.25 µM,3.13 µM,> 6.25 µM,0.259 µM,> 6.25 µM,3.97 µM,> 6.25 µM
Cc1c(NC(=O)Nc2c(Cl)cccc2Cl)c(=O)n(-c2ccccc2)n1C,,> 100 µM,,> 100 µM,,> 100 µM,,> 100 µM,,> 100 µM,,> 100 µM,,> 100 µM,,> 100 µM,,> 100 µM,,> 100 µM
O=C1C(Cl)=C(Nc2cc(Cl)ccc2O)C(=O)N1Cc1ccccc1,17 µM,36.7 µM,18.3 µM,40.9 µM,15.1 µM,30.5 µM,11.9 µM,39.5 µM,20.3 µM,53.3 µM,16.1 µM,34.2 µM,19.5 µM,34.4 µM,25.4 µM,> 61.2 µM,38.6 µM,> 67.7 µM,32.7 µM,> 54.6 µM
c1cc(C2CCCCC2)ccc1-c1cnc2nonc2n1,2.74 µM,12.2 µM,1.08 µM,3.18 µM,0.548 µM,2.56 µM,0.4 µM,2.79 µM,1.31 µM,3.62 µM,1.36 µM,2.99 µM,1.1 µM,3.21 µM,1.46 µM,3.55 µM,0.348 µM,,1.18 µM,2.44 µM
O=C(O)/C(Cl)=C(Cl)/C=N/NC(=O)c1cc2ccccc2cc1O,,> 100 µM,,> 100 µM,,77 µM,,> 100 µM,,79.3 µM,,> 100 µM,,> 100 µM,,> 100 µM,,39.3 µM,,6.36 µM
CC(C)c1[nH]nc2c(NCc3ccc(-c4ccccn4)cc3)nc(SCCN)nc12,0.0306 µM and 0.0159 µM,12.2 µM,2.47 µM and 2.84 µM,14.8 µM,0.00326 µM,0.147 µM,0.0151 µM and 0.0167 µM,0.0847 µM and 0.0831 µM,0.0306 µM,0.105 µM,0.0197 µM and 0.0124 µM,0.171 µM and 0.239 µM,0.0238 µM,0.185 µM,0.0173 µM and 0.0142 µM,11.8 µM,0.0126 µM,2.03 µM,0.186 µM and 0.402 µM,
CC(C)(O)CCc1cccc(C(=O)c2cnn(-c3ccc(F)cc3)c2N)c1,> 25 µM,> 25 µM,> 25 µM,> 25 µM,> 25 µM,> 25 µM,> 25 µM,> 25 µM,> 25 µM,> 25 µM,> 25 µM,> 25 µM,> 25 µM,> 25 µM,> 25 µM,> 25 µM,> 25 µM,> 25 µM,> 25 µM,> 25 µM
O=C(NCc1ccco1)C1CCN(S(=O)(=O)c2ccc(Cl)cc2)CC1,78.3 µM,> 100 µM,> 100 µM,> 100 µM,90.5 µM,> 100 µM,94.9 µM,> 100 µM,> 100 µM,> 100 µM,> 100 µM,> 100 µM,> 100 µM,> 100 µM,> 100 µM,> 100 µM,72.8 µM,> 100 µM,86.6 µM,> 100 µM
NC(Cc1cccnn1)C(=O)O (centres undefined),,> 100 µM,,> 100 µM,,> 100 µM,,> 100 µM,,> 100 µM,,> 100 µM,,> 100 µM,,> 100 µM,,> 100 µM,,> 100 µM
COc1ccc(/C=C2\COc3ccc(O)c(O)c3C2=O)cc1OC,2.6 µM,> 100 µM,1.22 µM,2.98 µM,0.199 µM,0.473 µM,0.336 µM,1.51 µM,2.02 µM,5.28 µM,1.8 µM,3.69 µM,1.39 µM,5.16 µM,2.06 µM,7.43 µM,0.537 µM,10.7 µM,0.789 µM,2.19 µM
COC(=O)c1c2c(c(C)[n+]([O-])c1C)C(=O)C(NCc1ccc(F)cc1)=CC2=O,1.79 µM,5.66 µM,2.06 µM,6 µM,1.7 µM,4.02 µM,2 µM,6.82 µM,1.75 µM,4.03 µM,3.2 µM,15.6 µM,1.17 µM,2.62 µM,2.1 µM,5.2 µM,1.7 µM,> 100 µM,1.67 µM,3.77 µM
O=C(N=Nc1c(Cl)c(O)c2ccccc2c1O)C(=O)Nc1cccc(C(F)(F)F)c1,3.79 µM,16.7 µM,8.66 µM,23.7 µM,2.82 µM,10.9 µM,3.49 µM,15.6 µM,7.22 µM,20.5 µM,10.4 µM,23.3 µM,1.77 µM,3.79 µM,4.6 µM,17.6 µM,3.08 µM,17.1 µM,1.53 µM,12.2 µM
COc1c(-c2ccc3c(c2)OCO3)oc2cc(O)cc(O)c2c1=O,,> 100 µM,,86.4 µM,,83.8 µM,,> 100 µM,,> 100 µM,,> 100 µM,,> 100 µM,,> 100 µM,,> 100 µM,,> 100 µM
C=CCC(N[C@H](CO)c1ccccc1)c1ccccn1 (some centres undefined),> 100 µM,> 100 µM,> 100 µM,> 100 µM,> 100 µM,> 100 µM,> 100 µM,> 100 µM,> 100 µM,> 100 µM,> 100 µM,> 100 µM,> 100 µM,> 100 µM,,,> 100 µM,> 100 µM,> 100 µM,> 100 µM
COC(=O)C12C34C=CC5(CCC6(C=CC1(CC3)O6)C52C(=O)OC)O4 (centres undefined),,> 100 µM,,> 100 µM,,> 100 µM,,,,> 100 µM,,> 100 µM,,> 100 µM,,> 100 µM,,> 100 µM,,
CCC[CH2][Sn]([CH2]CCC)([O]C(=O)c1cc(F)ccc1F)[O]C(=O)c1cc(F)ccc1F,7.72 µM,21 µM,1.06 µM,2.27 µM,0.108 µM,0.23 µM,,,0.649 µM,1.87 µM,1.09 µM,2.32 µM,1.16 µM,2.39 µM,1.56 µM,2.9 µM,0.502 µM,8.74 µM,1.47 µM,2.79 µM
O=C(COC(=O)c1cccc2c(=O)c3ccccc3[nH]c12)Nc1ccc(Cl)cc1,,> 100 µM,,> 100 µM,,> 100 µM,,,,,,> 100 µM,,> 100 µM,,> 100 µM,,> 100 µM,,> 100 µM
CC(=O)O[C@@H]1C2=C(C)C3(CC3)[C@@](C)(O)C(=O)C2=C[C@@]1(C)CO,1.05 µM,24.2 µM,1.5 µM,13.3 µM,0.496 µM,4.44 µM,0.372 µM,3.14 µM,1.86 µM,4.43 µM,1.98 µM,4.52 µM,1.86 µM,13.9 µM,1.08 µM,9.6 µM,0.271 µM,> 100 µM,,
